Measured values reported in ChEMBL document CHEMBL5113387, “An insight into the multifunctional role of ghrelin and structure activity relationship studies of ghrelin receptor ligands with clinical trials” (Eur J Med Chem, 2022).
Peptide text beside a SMILES is read from it.

What was measured:
[1] = Stimulation of growth hormone secretion in rat pituitary cells; type: functional, cell-based; conditions: Pituitary gland cell
[2] = target: T1, Growth hormone secretagogue receptor type 1 (Homo sapiens, UniProt Q92847); assay: Binding affinity to GHS-R1a (unknown origin) assessed as inhibition constant
[3] = Oral bioavailability in human; type: ADME, organism-based; conditions: in vivo
[4] = target: T1, Growth hormone secretagogue receptor type 1; assay: Binding affinity to GHS-R1a (unknown origin); conditions: filed as agonist
[5] = Stimulation of growth hormone secretion in Wistar rat pituitary cells measured after 15 mins; type: functional, cell-based; conditions: Pituitary gland cell, 0.25 h

T1 sequence (Q92847 whole entry): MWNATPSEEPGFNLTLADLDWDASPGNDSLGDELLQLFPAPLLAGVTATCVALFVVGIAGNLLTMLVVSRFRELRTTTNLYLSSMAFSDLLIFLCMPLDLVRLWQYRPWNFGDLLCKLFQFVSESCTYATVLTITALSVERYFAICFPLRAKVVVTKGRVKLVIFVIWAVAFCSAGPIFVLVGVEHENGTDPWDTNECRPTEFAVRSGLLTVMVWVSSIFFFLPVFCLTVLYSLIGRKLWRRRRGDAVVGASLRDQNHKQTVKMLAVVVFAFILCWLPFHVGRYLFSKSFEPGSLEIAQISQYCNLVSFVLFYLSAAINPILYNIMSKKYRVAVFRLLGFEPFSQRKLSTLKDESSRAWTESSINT

| SMILES | EC50 [1] [nM] | also measured |
| --- | --- | --- |
| CC(C)(N)CC(=O)N[C@@H]1CCc2ccccc2N(Cc2ccc(-c3ccccc3-c3nn[nH]n3)cc2)C1=O | 60 | – |
| CN1CCC(S(=O)(=O)N[C@@H](COCc2ccccc2)C(=O)N2CCC3(CC2)CN(S(C)(=O)=O)c2ccccc23)CC1 | – | Ki [2]: < 100 nM |
| Cc1[nH]c2ccccc2c1C[C@@H](NC(=O)[C@@H](N)Cc1cnc[nH]1)C(=O)N[C@@H](C)C(=O)N[C@@H](Cc1c[nH]c2ccccc12)C(=O)N[C@H](Cc1ccccc1)C(=O)N[C@@H](CCCCN)C(N)=O [EXAMORELIN] (HELM PEPTIDE1{H.[Cc1[nH]c2ccccc2c1C[C@@H](N[*:1])C(=O)[*:2]].A.W.[dF].K.[am]}$$$$V2.0) | – | bioavailability [3]: < 1% |
| CC(C)(N)C(=O)N[C@H](COCc1ccccc1)C(=O)N1CCC2(CC1)CN(S(C)(=O)=O)c1ccccc12 [IBUTAMOREN] | 1.3 | Activity [4]: 0.3 nM |
| C[C@H](NC(=O)[C@H](Cc1c[nH]c2ccccc12)NC(=O)[C@@H](N)Cc1c[nH]cn1)C(=O)N[C@@H](Cc1c[nH]c2ccccc12)C(=O)N[C@@H](Cc1ccccc1)C(=O)N[C@@H](CCCCN)C(N)=O (H-HWAWFK-NH2) | 10 | – |
| CN1N=C2CCN(C(=O)[C@@H](COCc3ccccc3)NC(=O)C(C)(C)N)C[C@@]2(Cc2ccccc2)C1=O [CAPROMORELIN] | – | EC50 [5]: 3 nM |
| C[C@H](O)CNC(C)(C)CC(=O)N[C@@H]1CCc2ccccc2N(Cc2ccc(-c3ccccc3-c3nn[nH]n3)cc2)C1=O | 3 | – |
